The values that follow come from patent US11090304B2 (Amgen Inc., priority 2018, dated 2021).

Chain of GDP-bound KRAS protein (aa 1-169), containing both G12C and C118A amino acid substitutions (P01116 1-169 isoform P01116-2 G12C/C118A): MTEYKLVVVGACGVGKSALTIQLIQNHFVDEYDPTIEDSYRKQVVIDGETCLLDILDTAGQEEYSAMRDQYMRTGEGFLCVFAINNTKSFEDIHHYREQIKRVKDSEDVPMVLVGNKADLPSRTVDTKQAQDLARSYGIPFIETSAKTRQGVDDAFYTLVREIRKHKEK

The first assay addresses GDP-bound KRAS protein (aa 1-169), containing both G12C and C118A amino acid substitutions (Homo sapiens, UniProt P01116, C118A/G12C). Kind of assay: Coupled nucleotide exchange assay (SOS-mediated, AlphaScreen). The format is biochemical. The following applies: 5 min compound pre-incubation.
Regarding `C=CC(=O)N1CCN(c2nc(=O)n(-c3nccc4c3CCCC4)c3nc(-c4c(O)cccc4F)c(Cl)cc23)[C@@H](C)C1` [Example 55-25, 6-chloro-7-(2-fluoro-6-hydroxyphenyl)-4-((2S)-2-methyl-4-(2-propenoyl)-1-piperazinyl)-1-(5,6,7,8-tetrahydro-1-isoquinolinyl)pyrido[2,3-d]pyrimidin-2(1H)-one], the “Coupled exchange IC50 (5 min)” value is recorded as 2.29 | nda μM.

In the case of `C=CC(=O)N1CCN(c2nc(=O)n(-c3c(CC)cccc3CC)c3nc(-c4cccnc4)c(Cl)cc23)[C@@H](C)C1` [Example 55-28, 6-chloro-1-(2,6-diethylphenyl)-4-((2S)-2-methyl-4-(2-propenoyl)-1-piperazinyl)-7-(3-pyridinyl)pyrido[2,3-d]pyrimidin-2(1H)-one], the “Coupled exchange IC50 (5 min)” value is on record as 12.9 | nda μM.

As for `C=CC(=O)N1CCN(c2nc(=O)n(-c3c(CC)cccc3CC)c3nc(-c4cccnc4C)c(Cl)cc23)[C@@H](C)C1` [Example 55-29, 6-chloro-1-(2,6-diethylphenyl)-4-((2S)-2-methyl-4-(2-propenoyl)-1-piperazinyl)-7-(2-methyl-3-pyridinyl)pyrido[2,3-d]pyrimidin-2(1H)-one], the “Coupled exchange IC50 (5 min)” value is 7.19 | nda μM.

For the compound `C=CC(=O)N1CCN(c2nc(=O)n(Cc3ccc(OC)cc3)c3nc(-c4c(O)cccc4F)c(Cl)cc23)[C@@H](C)C1` [Example 55-32, 6-chloro-7-(2-fluoro-6-hydroxyphenyl)-1-(4-methoxybenzyl)-4-((2S)-2-methyl-4-(2-propenoyl)-1-piperazinyl)pyrido[2,3-d]pyrimidin-2(1H)-one], the “Coupled exchange IC50 (5 min)” value is recorded as 3.07 | nda μM.

In the case of `C=CC(=O)N1CCN(c2nc(=O)n(C)c3nc(-c4ccccc4F)c(Cl)cc23)[C@@H](C)C1` [Example 55-33, 6-chloro-7-(2-fluorophenyl)-1-methyl-4-((2S)-2-methyl-4-(2-propenoyl)-1-piperazinyl)pyrido[2,3-d]pyrimidin-2(1H)-one], the “Coupled exchange IC50 (5 min)” value is reported as 45.8 | nda μM.

`C=CC(=O)N1CCN(c2nc(=O)n(C)c3nc(-c4c(O)cccc4F)c(Cl)cc23)[C@@H](C)C1` [Example 55-34, 6-chloro-7-(2-fluoro-6-hydroxyphenyl)-1-methyl-4-((2S)-2-methyl-4-(2-propenoyl)-1-piperazinyl)pyrido[2,3-d]pyrimidin-2(1H)-one]: the “Coupled exchange IC50 (5 min)” value is 20.8 | nda μM.

Take `C=CC(=O)N1CCN(c2nc(=O)n(C)c3nc(-c4c(C)ccc5[nH]ncc45)c(Cl)cc23)[C@@H](C)C1` [Example 55-36, 6-chloro-1-methyl-7-(5-methyl-1H-indazol-4-yl)-4-((2S)-2-methyl-4-(2-propenoyl)-1-piperazinyl)pyrido[2,3-d]pyrimidin-2(1H)-one]: the “Coupled exchange IC50 (5 min)” value is reported as 38.6 | nda μM.

In the case of `C=CC(=O)N1CCN(c2nc(=O)n(-c3c(C)cnn3C(C)(C)C)c3nc(-c4ccccc4F)c(Cl)cc23)[C@@H](C)C1` [Example 55-38, 6-chloro-7-(2-fluorophenyl)-1-(4-methyl-1-(2-methyl-2-propanyl)-1H-pyrazol-5-yl)-4-((2S)-2-methyl-4-(2-propenoyl)-1-piperazinyl)pyrido[2.3-d]pyrimidin-2(1H)-one], the “Coupled exchange IC50 (5 min)” value is 0.377 | nda μM.

Turning to `C=CC(=O)N1CCN(c2nc(=O)n(-c3cn[nH]c3C(C)C)c3nc(-c4ccccc4F)c(Cl)cc23)[C@@H](C)C1` [Example 55-42, 6-chloro-7-(2-fluorophenyl)-4-((2S)-2-methyl-4-(2-propenoyl)-1-piperazinyl)-1-(5-(2-propanyl)-1H-pyrazol-4-yl)pyrido[2,3-d]pyrimidin-2(1H)-one], the “Coupled exchange IC50 (5 min)” value is given as 0.351 | nda μM.

`C=CC(=O)N1CCN(c2nc(=O)n(-c3scnc3C3CC3)c3nc(-c4c(O)cccc4F)c(Cl)cc23)[C@@H](C)C1` [Example 56-3, 6-chloro-1-(4-cyclopropyl-1,3-thiazol-5-yl)-7-(2-fluoro-6-hydroxyphenyl)-4-((2S)-2-methyl-4-(2-propenoyl)-1-piperazinyl)pyrido[2,3-d]pyrimidin-2(1H)-one]: the “Coupled exchange IC50 (5 min)” value is recorded as 3.85 | nda μM.

`C=CC(=O)N1CCN(c2nc(=O)n(-c3scnc3C3CC3)c3nc(-c4ccccc4F)c(Cl)cc23)[C@@H](C)C1` [Example 56-4, 6-chloro-1-(4-cyclopropyl-1,3-thiazol-5-yl)-7-(2-fluorophenyl)-4-((2S)-2-methyl-4-(2-propenoyl)-1-piperazinyl)pyrido[2,3-d]pyrimidin-2(1H)-one]: the “Coupled exchange IC50 (5 min)” value was 5.32 | nda μM.

With `C=CC(=O)N1CCN(c2nc(=O)n(-c3ccccc3C(C)C)c3nc(-c4cccc(OC(F)F)c4)c(Cl)cc23)[C@@H](C)C1` [Example 56-8, 6-chloro-7-(3-(difIuoromethoxy)phenyl)-4-((2S)-2-methyl-4-(2-propenoyl)-1-piperazinyl)-1-(2-(2-propanyl)phenyl)pyrido[2,3-d]pyrimidin-2(1H)-one], the “Coupled exchange IC50 (5 min)” value is 1.56 | nda μM.

On to `C=CC(=O)N1CCN(c2nc(=O)n(-c3ccccc3C(C)C)c3nc(-c4c(O)cccc4F)c(F)cc23)[C@@H](C)C1` [Example 57-6, 6-fluoro-7-(2-fluoro-6-hydroxyphenyl)-4-((2S)-2-methyl-4-(2-propenoyl)-1-piperazinyl)-1-(2-(2-propanyl)phenyl)pyrido[2,3-d]pyrimidin-2(1H)-one], for which the “Coupled exchange IC50 (5 min)” value is recorded as 1.67 | nda μM.

Turning to `C=CC(=O)N1CCN(c2nc(=O)n(-c3c(C)ccnc3CC)c3nc(-c4ccccc4F)c(F)cc23)[C@@H](C)C1` [Example 57-16, 1-(2-ethyl-4-methyl-3-pyridinyl)-6-fluoro-7-(2-fluorophenyl)-4-((2S)-2-methyl-4-(2-propenoyl)-1-piperazinyl)pyrido[2,3-d]pyrimidin-2(1H)-one], the “Coupled exchange IC50 (5 min)” value is 3.79 | nda μM.

`C=CC(=O)N1CCN(c2nc(=O)n(-c3c(C)ccnc3C3CC3)c3nc(-c4ccccc4F)c(F)cc23)[C@@H](C)C1` [Example 57-18, 1-(2-cyclopropyl-4-methyl-3-pyridinyl)-6-fluoro-7-(2-fluorophenyl)-4-((2S)-2-methyl-4-(2-propenoyl)-1-piperazinyl)pyrido[2,3-d]pyrimidin-2(1H)-one]: the “Coupled exchange IC50 (5 min)” value was 1.73 | nda μM.

Regarding `C=CC(=O)N1CCN(c2nc(=O)n(-c3c(C)cccc3C3CC3)c3nc(-c4ccccc4F)c(F)cc23)[C@@H](C)C1` [Example 58-14, 1-(2-cyclopropyl-6-methylphenyl)-6-fluoro-7-(2-fluorophenyl)-4-((2S)-2-methyl-4-(2-propenoyl)-1-piperazinyl)pyrido[2,3-d]pyrimidin-2(1H)-one], the “Coupled exchange IC50 (5 min)” value is on record as 2.45 | nda μM.

Regarding `C=CC(=O)N1CCN(c2nc(=O)n(-c3ccccc3C(C)(C)C)c3nc(-c4ccccc4F)c(F)cc23)[C@@H](C)C1` [Example 58-17, 6-fluoro-7-(2-fluorophenyl)-1-(2-(2-methyl-2-propanyl)phenyl)-4-((2S)-2-methyl-4-(2-propenoyl)-1-piperazinyl)pyrido[2,3-d]pyrimidin-2(1H)-one], the “Coupled exchange IC50 (5 min)” value is recorded as 1.68 | nda μM.

As for `C=CC(=O)N1CCN(c2nc(=O)n(-c3c(C4CC4)ccnc3C)c3nc(-c4ccccc4F)c(F)cc23)[C@@H](C)C1` [Example 58-20, 1-(4-cyclopropyl-2-methyl-3-pyridinyl)-6-fluoro-7-(2-fluorophenyl)-4-((2S)-2-methyl-4-(2-propenoyl)-1-piperazinyl)pyrido[2,3-d]pyrimidin-2(1H)-one], the “Coupled exchange IC50 (5 min)” value was 1.96 | nda μM.

For the compound `C=CC(=O)N1CCN(c2nc(=O)n(-c3c(C)ccnc3C(C)C)c3nc(Cl)c(F)cc23)[C@@H](C)C1` [Example 58-21, 7-chloro-6-fluoro-1-(4-methyl-2-(2-propanyl)-3-pyridinyl)-4-((2S)-2-methyl-4-(2-propenoyl)-4-piperazinyl)pyrido[2,3-d]pyrimidin-2(1H)-one], the “Coupled exchange IC50 (5 min)” value was 17.5 | nda μM.

Consider `C=CC(=O)N1CCN(c2nc(=O)n(-c3c(CC)ncnc3CC)c3nc(-c4ccccc4F)c(F)cc23)[C@@H](C)C1` [Example 58-22, 1-(4,6-diethyl-5-pyrimidinyl)-6-fluoro-7-(2-fluorophenyl)-4-((2S)-2-methyl-4-(2-propenoyl)-1-piperazinyl)pyrido[2,3-d]pyrimidin-2(1H)-one], for which the “Coupled exchange IC50 (5 min)” value is 2.71 | nda μM.

As for `C=CC(=O)N1CCN(c2nc(=O)n(-c3ccccc3C3(C(F)(F)F)CC3)c3nc(-c4c(O)cccc4F)c(F)cc23)[C@@H](C)C1` [Example 59-1, 6-Fluoro-7-(2-fluoro-6-hydroxyphenyl)-4-((2S)-2-methyl-4-(2-propenoyl)-1-piperazinyl)-1-(2-(1-(trifluoromethyl)cyclopropyl)phenyl)pyrido[2,3-d]pyrimidin-2(1H)-one], the “Coupled exchange IC50 (5 min)” value is 2.98 | nda μM.

For `C=CC(=O)N1CCN(c2nc(=O)n(-c3c(C4CC4)ncnc3C3CC3)c3nc(-c4ccccc4F)c(F)cc23)[C@@H](C)C1` [Example 59-5, 1-(4,6-dicyclopropyl-5-pyrimidinyl)-6-fluoro-7-(2-fluorophenyl)-4-((2S)-2-methyl-4-(2-propenoyl)-1-piperazinyl)pyrido[2,3-d]pyrimidin-2(1H)-one], the “Coupled exchange IC50 (5 min)” value is reported as 0.501 | nda μM.

Take `C=CC(=O)N1CCN(c2nc(=O)n(-c3ccccc3C)c3nc(Cl)c(Cl)cc23)[C@@H](C)C1` [Example 60-12, 6,7-dichloro-1-(2-methylphenyl)-4-((2S)-2-methyl-4-(2-propenoyl)-1-piperazinyl)pyrido[2,3-d]pyrimidin-2(1H)-one]: the “Coupled exchange IC50 (5 min)” value is recorded as 22.2 | nda μM.

The same assay, now with this note: 2 h compound pre-incubation.
`C=CC(=O)N1CCN(c2nc(=O)n(CC3(C(F)(F)F)CC3)c3nc(Cl)c(Cl)cc23)CC1` [Example 60-2, 6,7-dichloro-4-(4-(2-propenoyl)-1-piperazinyl)-1-((1-(trifluoromethyl)cyclopropyl)methyl)pyrido[2,3-d]pyrimidin-2(1H)-one]: the “Coupled exchange IC50 (2 h)” value is “nda | 7.62 μM”.

Regarding `C=CC(=O)N1CCN(c2nc(=O)n(Cc3ccccn3)c3nc(-c4c(O)cccc4F)c(Cl)cc23)CC1` [Example 60-7], the “Coupled exchange IC50 (2 h)” value is “nda | 26.9 μM”.
